From patent US11434330B2, “Polyrotaxanes bearing mixed cyclodextrin species and uses thereof” (Purdue Research Foundation, priority 2015, dated 2022)

Tests used:
[1] = system: npc1^−/− mice; conditions: subcutaneous injection, 4.0 mg/kg of body weight; cited from earlier work
[2] = system: Niemann-Pick C1-deficient (npc1−/−) fibroblasts; test: Cholesterol mobilization (filipin staining) in npc1−/− fibroblasts; assay type: cell-based; conditions: 6 h after treatment, total β-CD concentration 25 μM
Experimental: PR carrying an increasing percentage of SBE-β-CD were administered to Niemann-Pick C1-deficient (npc1−/−) fibroblasts to examine their ability to mobilize cholesterol from sites of aberrant accumulation. Each PR family member, generated with a 0%, 30%, 50%, 60%, or 100% SBE-β-CD feed ratio, was administered at a total β-CD concentration of 25 μM and compared to administration of 25 μM SBE-β-CD or HP-β-CD monomers as controls. Comparisons were made at equivalent β-CD concentrations in these experiments, such that each PR construct carrying 10 copies of β-CD was administered at a 10-fold lower molar concentration than for the β-CD monomer controls, so that any apparent differences in cholesterol mobilization could be attributed to the PR agent (a type of β-CD prodrug) rather than the total drug concentration added to the cells.
HP-β-CD and SBE-β-CD monomers decreased the average filipin staining in npc1−/− fibroblasts to approximately 75% of the untreated control levels after 6 h. PR comprised of 100% HP-β-CD and 100% SBE-β-CD performed equivalently, each decreasing filipin staining to ˜78% of control. PRs carrying 30:70 SBE-β-CD:HP-β-CD ratio decreased fluorescence to ˜65% of the untreated group.

[3] = within 24 h; cited from earlier work
[4] = room temperature, in water; cited from earlier work
[5] = system: J774 macrophage cells; test: Cellular uptake by MR relaxation of lysed cells; assay type: cell-based; conditions: 0.1 mM Gd, 12 h at 37° C., serum free media, 7 T
Experimental: Cellular Uptake Studies. Since macromolecular constructs such as polyrotaxanes can trigger the innate immune system (monocytes, macrophages, dendritic cells) in vivo, their uptake of the polyrotaxane contrast was evaluated by macrophages using the MR imaging modality. In addition, one can take advantage of the biological properties of these materials to image macrophages in human diseases including cancer, atherosclerosis, myocardial infarction, diabetes and other conditions. Macrophages are known to play an important role in host system defense leading to the detrimental fate of most nanomaterials. […] Based on these reports, cellular uptake in J774 macrophages of the polyrotaxane contrast agents was assessed. […] T1 and T2 values from the lysed cells contained in 300 μL eppendorf tubes were measured using an inversion recovery sequence at 7 T and the inverse of spin-lattice (1/T1) and spin-spin (1/T2) relaxation times were evaluated. […]
Cellular Uptake Studies. […] These cells were then collected and analyzed using reverse spin echo scanning on Bruker 7 T Biospect small animal scanner (Bindley Bioscience Center, West Lafayette, Ind.). The relaxations T1 and T2 values were collected from samples images recorded from the cells contained in 300 μL plastic containers using the scanning conditions similarly to those employed for In vitro imaging of polyrotaxane solutions.

[6] = In vivo MRI contrast enhancement in Balb/C mice; conditions: i.v., 3D T1-weighted MRI
Experimental: In Vivo MRI Contrast Enhancement of Gd^3+—HP-β-CD/SBE-β-CD-PRs. To investigate the MR contrast enhancement and the circulation fate in vivo of the polyrotaxanes, 3D T1-weighted MR images of Balb/C mice after intra-venous injection were acquired with 7 T Bruker small animal scanner before injection and 10, 20, 35, 50, and 60 min post injection. The tissue contrast enhancement of the compounds has different fates dependent on the threading efficiency, molecular weight, size and surface charge of each contrast agent. […] As expected, DOTAREM® was completely eliminated within 20 min, a typical trend commonly observed for small contrast agents.
To quantify the contrast enhancements, the contrast signal-to-noise ratio (CNR) was calculated from regions of interest (ROIs) carefully drawn in the cross-section images of heart, liver, and kidney obtained from the 2D T1-weighted scans. There was insignificant signal enhancement in all these tissues (FIG. 4). […]
In Vivo MR Imaging. […] To quantify the changes in tissues signal intensity, regions of interest (ROIs) were drawn in images of different organs obtained from the 2D T1-weighted scans and ParaVision software was used to evaluate the mean intensities. The contrast-to-noise ratio (CNR) was calculated for the tissues using the following equation: […]

[7] = Fixed-field relaxivity measurement at 7 T; assay type: physicochemical; conditions: 7 T Bruker BioSpec; 23° C.; 0.05 to 1.0 mM Gd in water
Experimental: A fixed field measurement of relaxivity was also performed on aqueous solutions of the polyrotaxane contrast agents in the range of 0.05 to 1.0 mM using a 7 T ([…]) Bruker BioSpec scanner at 23° C. The relaxivity r1 and r2 were determined by plotting the inverse longitudinal (1/T1) and transversal (1/T2) relaxation times, respectively, as a function of Gd concentrations.
Relaxivity Measurements. The longitudinal and transversal relaxation rate of the contrast agents and J774 macrophage cells were measured using a 7 T Bruker BioSpec scanner (Bindley Bioscience Center, West Lafayette, Ind.) 47/30 equipped with a Bruker Biospin MRI GmbH volume coil, 86 mm ID, operating at 300 MHz at 23° C. (RES 300 1 H 112/086 QNS TO AD). […] T1 and T2 values were measured using inversion recovery sequence and multi-slice-multi-echo (MSME) sequence respectively. […] The parameters used are as followed. r1: Repetition times, TE=50.72, 100, 350, 750, 1250, 2500, 3500, and 5000 ms, echo time, TE=22.22 ms, FOV=10×10 mm^2, matrix=128×128, slice thickness=1.0 mm, acquisition number=1. r2: TR=2000 ms, TE=15, 30, 45, 60, 75, 90, 105 ms, FOV=20×20 mm^2, matrix=128×128, slice thickness=1 mm, acquisition number=1. r1 and r2 values were determined by as the slopes of the lines for the plot of 1/T1 and 1/T2 against Gd concentrations, respectively, using the same ROI.

| Compound | effect on survival, hepatopathology, neuropathology [1] | filipin staining, % of untreated control [2] | fraction cleared from the bloodstream [3] | water solubility [4] | cellular uptake (1/T1, 1/T2 of lysed cells) [5] | time to complete elimination [6] | r1 (mM^−1s^−1) (1/T1) [7] |
| --- | --- | --- | --- | --- | --- | --- | --- |
| 2-Hydroxypropyl-β-cyclodextrin [HP-β-CD] | improvement in their survival, hepatopathology, and neuropathology | approximately 75% | > 90% | 650 mg/mL | – | – | – |
| 4-sulfobutylether-β-cyclodextrin [SBE-β-CD] | – | approximately 75% | – | – | – | – | – |
| CNC[C@H](O)[C@@H](O)[C@H](O)[C@H](O)CO.O=C([O-])CN1CCN(CC(=O)[O-])CCN(CC(=O)O)CCN(CC(=O)[O-])CC1.[Gd+3] [DOTAREM] | – | – | – | – | did not show any endocytosis | ≤ 20 min | 3.8 mM⁻¹ s⁻¹ |
